Laboratory results from patent US20250177291A1, “HYPOTONIC GEL-FORMING FORMULATIONS WITH ENHANCED RHEOLOGICAL PROPERTIES” (The Johns Hopkins University, priority 2021, published 2025).

Assay: Rheology: max tack force and adhesion of 16% F127 gels with additives
Format: physicochemical
Settings: 0.2-1% glycerin added to 16% w/v F127, 37° C., vs no additive
Protocol: An Anton Paar cone and plate rheometer (model MCR 302) with PP25 probe were used to measure the max tack force and the adhesion. The probe was placed in contact with the sample, and then moved at a controlled rate vertically away from the sample to measure the normal force. The peak force on the curve is considered the max tack force, while the adhesion is the area under the force curve. Samples (200 μL) were transferred to the rheometer sample holder using a Drummond Wiretrol 200 μL wire plunger pipette. The samples were equilibrated between the probe and sample holder with a 1 mm gap for 60 s at the specified temperature. A total of 100 points were measured at 60 s intervals with ramp linear mode (initial was set as −0.005 mm/s and the final was set as −0.5 mm/s). If not specified, n=3-6 per each sample group were measured and each sample were prepared individually. The final data was exported from the Antron Parr RheoCompass. The max tack force and the adhesion were calculated with GraphPad Prism 9. For the temperature ramp viscosity experiment, the loading gap was set to 0.3 mm. […] The raw data with temperature (° C.) and viscosity (mPa*s) measurements were exported from the Anton Parr RheoCompass software and analyzed/plotted with GraphPad Prism 9. […]

SMILES: OCC(O)CO [glycerin]
- adhesion of the F127 gels: no measurable effect
- max tack force of the F127 gels: no measurable effect
